Test results from patent publication US10597388B2, “Pyridazinone herbicides” (FMC CORPORATION, priority 2014, dated 2020).

Tests used:
Assay type in all cases: in vivo
[1] = tested on: ryegrass, Italian (Italian ryegrass, Lolium multiflorum); assay: Test C greenhouse herbicide test, pre- and postemergence
In short: (§1)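 Percent-control ratings (0 none, 100 complete) came from visual comparison with controls held alongside in the greenhouse for 13–15 d. Treatments covered soil application at sowing and foliar application to young plants 2–18 cm tall.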

[2] = tested on: galium (catchweed bedstraw, Galium aparine); assay: as above
In short: as §1

[3] = tested on: ragweed (common ragweed, Ambrosia elatior); assay: as above
In short: as §1

soybean (Glycine max) = assay: as above
In short: as §1

[4] = tested on: ryegrass, Italian (Italian ryegrass, Lolium multiflorum); assay: Test A greenhouse herbicide test, pre- and postemergence
In short: (§2)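 Visual injury ratings, 0 (no effect) to 100 (complete control), versus untreated plants after roughly 10 d in a greenhouse. Compounds, formulated in a surfactant-containing non-phytotoxic solvent, were sprayed on loam–sand soil after sowing (pre) or on one- to two-leaf plants 2–10 cm tall (post).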

[5] = tested on: foxtail, giant (giant foxtail, Setaria faberii); assay: as above
In short: as §2

kochia (Kochia scoparia) = assay: as above
In short: as §2

[6] = tested on: ragweed (common ragweed, Ambrosia elatior); assay: as above
In short: as §2

corn (Zea mays) = assay: as above; details: Postemergence
In short: as §2

[7] = tested on: wheat (Triticum aestivum); assay: as above; details: Postemergence
In short: as §2

[8] = tested on: blackgrass (Alopecurus myosuroides); assay: Test A greenhouse herbicide test, postemergence
In short: (§3)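 Seedlings in a loam soil and sand mix received formulated compound postemergence at the one- to two-leaf stage. Greenhouse holding lasts approximately 10 d, then injury is scored visually relative to untreated plants, 0 meaning no effect and 100 complete control.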

[9] = tested on: galium (catchweed bedstraw, Galium aparine); assay: Test A greenhouse herbicide test, postemergence
In short: as §3

[10] = Postemergence, 31 g ai/ha, scale 0 to 100 (0 no effect, 100 complete control)
[11] = Postemergence, 62 g ai/ha, 0 to 100 scale (0 no effect, 100 complete control)
[12] = Postemergence, 250 g ai/ha, scale 0 to 100, 0 is no effect, 100 is complete control
[13] = postemergence, 125 g ai/ha, scale 0 to 100, 0 no effect, 100 complete control
[14] = Postemergence, 125 g ai/ha, 0 to 100 scale, 0 no effect, 100 complete control
[15] = Postemergence, 500 g ai/ha, visual rating after approx. 10 d, 0 to 100 scale (0 no effect, 100 complete control)
[16] = Preemergence, 125 g ai/ha, visual injury rating, 0 to 100 scale (0 no effect, 100 complete control), approx. 10 d
[17] = Preemergence, 500 g ai/ha, 0 to 100 scale where 0 is no effect and 100 is complete control
[18] = 125 g ai/ha, 0 to 100 scale, 0 no effect, 100 complete control
[19] = 500 g ai/ha, visual rating after approx. 10 d, 0 to 100 scale (0 no effect, 100 complete control)

SMILES: Cc1ccc2ccccc2c1-c1c(OC(=O)N2CCOCC2)c(Br)nn(C)c1=O [Compound 176]
- Plant response rating, Ryegrass, Italian [1, 10]: 0
- Ryegrass, Italian plant response rating [1, 11]: 0
- Plant response rating, Ryegrass, Italian [1, 12]: 10
- Ryegrass, Italian plant response rating [1, 13]: 0
- Plant response rating, Galium [2, 10]: 0
- Galium plant response rating [2, 11]: 5
- Plant response rating, Galium [2, 12]: 60
- Galium plant response rating [2, 13]: 60
- Plant response rating, Ragweed [3, 10]: 0
- Ragweed plant response rating [3, 11]: 0
- Plant response rating, Ragweed [3, 12]: 0
- Ragweed plant response rating [3, 13]: 0
- Plant response rating, Soybean (soybean (Glycine max); [10]): 5
- Soybean plant response rating (soybean (Glycine max); [11]): 10
- Plant response rating, Soybean (soybean (Glycine max); [12]): 10
- Soybean plant response rating (soybean (Glycine max); [13]): 15
- Plant response rating, Ryegrass, Italian [4, 14]: 30
- Plant response rating, Ryegrass, Italian [4, 15]: 100
- Plant response rating, Ryegrass, Italian [4, 16]: 0
- Plant response rating, Ryegrass, Italian [4, 17]: 90
- Plant response rating, Foxtail, Giant [5, 14]: 0
- Plant response rating, Foxtail, Giant [5, 15]: 10
- Plant response rating, Foxtail, Giant [5, 16]: 0
- Plant response rating, Foxtail, Giant [5, 17]: 10
- Plant response rating, Kochia (kochia (Kochia scoparia); [14]): 30
- Plant response rating, Kochia (kochia (Kochia scoparia); [15]): 70
- Plant response rating, Kochia (kochia (Kochia scoparia); [16]): 0
- Plant response rating, Kochia (kochia (Kochia scoparia); [17]): 20
- Plant response rating, Ragweed [6, 14]: 40
- Plant response rating, Ragweed [6, 15]: 100
- Plant response rating, Ragweed [6, 16]: 20
- Plant response rating, Ragweed [6, 17]: 70
- Plant response rating, Corn (corn (Zea mays); [18]): 0
- Plant response rating, Corn (corn (Zea mays); [19]): 0
- Plant response rating, Wheat [7, 18]: 0
- Plant response rating, Wheat [7, 19]: 0
- Plant response rating, Blackgrass [8, 18]: 30
- Plant response rating, Blackgrass [8, 19]: 30
- Plant response rating, Galium [9, 18]: 90
- Plant response rating, Galium [9, 19]: 100
